From ChEMBL document CHEMBL5331124, “Degradation of Hexokinase 2 Blocks Glycolysis and Induces GSDME-Dependent Pyroptosis to Amplify Immunogenic Cell Death for Breast Cancer Therapy” (J Med Chem, 2023)
Active and inactive are the calls of the source. The rule behind the calls is not given here.

Legend:
[1] = Toxicity in BALB/c nude mouse xenografted with human MDA-MB-231 cells assessed as effect on hemoglobin level at 50 mg/kg, ip measured after 30 days by routine blood test; format: organism-based; settings: in vivo, 720 h, time 30 day
4T1 [2] = assay: Induction of mitochondrial damage in mouse 4T1 cells assessed as reduction in LDH level at 20 uM measured for 36 hrs; format: functional, cell-based
[3] = biological target: T1, Hexokinase-2 (Homo sapiens) (UniProt P52789); assay: (§1) Induction of HK2 degradation in human MDA-MB-231 cells measured for 36 hrs; format: cell-based
T1 sequence (whole entry): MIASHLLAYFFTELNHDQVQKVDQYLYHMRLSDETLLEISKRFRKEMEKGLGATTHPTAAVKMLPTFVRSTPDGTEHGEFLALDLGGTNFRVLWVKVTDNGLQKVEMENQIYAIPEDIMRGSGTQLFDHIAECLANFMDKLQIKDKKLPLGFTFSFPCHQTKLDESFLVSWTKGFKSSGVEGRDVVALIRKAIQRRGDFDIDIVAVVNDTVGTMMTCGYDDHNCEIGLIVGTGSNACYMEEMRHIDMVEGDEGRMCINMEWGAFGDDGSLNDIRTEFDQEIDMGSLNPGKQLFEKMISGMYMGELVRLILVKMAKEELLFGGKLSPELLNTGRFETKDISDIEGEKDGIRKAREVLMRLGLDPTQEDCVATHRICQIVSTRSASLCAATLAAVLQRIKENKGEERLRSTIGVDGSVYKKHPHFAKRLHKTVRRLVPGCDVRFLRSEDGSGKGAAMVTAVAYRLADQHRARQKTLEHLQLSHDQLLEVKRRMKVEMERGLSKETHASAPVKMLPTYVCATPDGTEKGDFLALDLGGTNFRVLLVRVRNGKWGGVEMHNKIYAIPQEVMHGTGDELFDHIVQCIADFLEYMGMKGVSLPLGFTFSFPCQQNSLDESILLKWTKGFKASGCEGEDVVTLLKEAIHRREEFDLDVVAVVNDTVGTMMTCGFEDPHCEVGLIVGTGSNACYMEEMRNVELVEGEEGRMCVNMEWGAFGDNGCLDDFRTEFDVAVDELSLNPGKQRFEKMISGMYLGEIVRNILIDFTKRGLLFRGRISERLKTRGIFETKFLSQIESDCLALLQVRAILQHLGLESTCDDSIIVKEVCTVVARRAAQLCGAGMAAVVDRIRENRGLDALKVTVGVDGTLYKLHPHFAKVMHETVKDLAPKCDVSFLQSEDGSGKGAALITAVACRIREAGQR

Hexokinase-2 [4] = biological target: T2, Hexokinase-2 (Homo sapiens, UniProt P52789); assay: as §1; format: cell-based
T2 sequence (P52789 whole entry): T1 sequence (whole entry)

4T1 [5] = assay: Downregulation of PD-L1 expression in mouse 4T1 cells membrane at 20 uM measured for 36 hrs; format: functional, cell membranes
4T1 [6] = assay: Antitumor immunity against mouse 4T1 cells implanted in BALB/c mouse model assessed as downregulation of IL-10 expression in mouse tumor by ELISA analysis; format: functional, cell-based
[7] = Toxicity in BALB/c mouse implanted with mouse 4T1 cells assessed as effect on hematocrit level at 50 mg/kg, ip measured after 25 days by routine blood test; format: organism-based; settings: in vivo, 600 h, time 25 day
[8] = biological target: T3, Hexokinase-2 (Mus musculus) (UniProt O08528); assay: (§2) Induction of HK2 degradation in mouse 4T1 cells measured for 36 hrs; format: cell-based
T3 sequence (whole entry): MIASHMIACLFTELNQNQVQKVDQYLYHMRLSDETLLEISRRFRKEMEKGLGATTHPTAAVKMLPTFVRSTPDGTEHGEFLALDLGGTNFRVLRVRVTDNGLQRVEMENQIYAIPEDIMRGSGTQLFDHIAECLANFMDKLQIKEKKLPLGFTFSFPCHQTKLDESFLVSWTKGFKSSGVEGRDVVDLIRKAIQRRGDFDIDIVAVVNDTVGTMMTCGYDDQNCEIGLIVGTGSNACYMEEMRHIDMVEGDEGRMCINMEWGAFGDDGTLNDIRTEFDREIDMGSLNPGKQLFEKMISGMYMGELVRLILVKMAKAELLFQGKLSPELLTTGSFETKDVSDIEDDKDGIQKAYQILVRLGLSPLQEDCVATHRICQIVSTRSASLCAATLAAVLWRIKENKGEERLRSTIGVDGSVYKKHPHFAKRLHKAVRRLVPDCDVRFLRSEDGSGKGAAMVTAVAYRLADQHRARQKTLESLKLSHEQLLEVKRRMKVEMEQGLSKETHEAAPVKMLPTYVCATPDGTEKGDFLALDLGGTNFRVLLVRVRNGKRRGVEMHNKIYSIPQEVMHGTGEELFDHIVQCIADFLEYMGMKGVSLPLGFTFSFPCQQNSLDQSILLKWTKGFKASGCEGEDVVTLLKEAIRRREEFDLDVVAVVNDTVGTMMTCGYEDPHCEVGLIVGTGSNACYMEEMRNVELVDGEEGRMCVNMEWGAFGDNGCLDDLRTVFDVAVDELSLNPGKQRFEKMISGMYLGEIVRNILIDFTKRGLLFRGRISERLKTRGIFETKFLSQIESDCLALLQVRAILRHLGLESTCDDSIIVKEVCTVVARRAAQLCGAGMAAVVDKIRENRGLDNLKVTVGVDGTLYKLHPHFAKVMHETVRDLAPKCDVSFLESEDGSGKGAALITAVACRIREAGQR

Hexokinase-2 [9] = biological target: T4, Hexokinase-2 (Mus musculus, UniProt O08528); assay: as §2; format: cell-based
T4 sequence (O08528 whole entry): T3 sequence (whole entry)

[10] = biological target: T1, Hexokinase-2 (Homo sapiens); assay: Induction of HK2 degradation in human MDA-MB-231 cells assessed as decrease in Bcl-2 expression at 20 uM measured for 36 hrs by Western blot analysis; format: cell-based
[11] = Toxicity in BALB/c mouse implanted with mouse 4T1 cells assessed as pathological changes in spleen at 50 mg/kg, ip measured after 25 days in presence of cisplatin by Hematoxylin -eosin staining based analysis; format: organism-based; settings: in vivo, 600 h, time 25 day
[12] = biological target: T5, Protein cereblon/Hexokinase-2 (Homo sapiens) (UniProt P52789+Q96SW2); assay: PROTAC activity at CRBN/HK2 in human MDA-MB-231 cells assessed as […] ternary complex formation at 10 uM incubated for 24 hrs; format: cell-based
T5 sequence (Q96SW2 whole entry, looked up, one chain of several): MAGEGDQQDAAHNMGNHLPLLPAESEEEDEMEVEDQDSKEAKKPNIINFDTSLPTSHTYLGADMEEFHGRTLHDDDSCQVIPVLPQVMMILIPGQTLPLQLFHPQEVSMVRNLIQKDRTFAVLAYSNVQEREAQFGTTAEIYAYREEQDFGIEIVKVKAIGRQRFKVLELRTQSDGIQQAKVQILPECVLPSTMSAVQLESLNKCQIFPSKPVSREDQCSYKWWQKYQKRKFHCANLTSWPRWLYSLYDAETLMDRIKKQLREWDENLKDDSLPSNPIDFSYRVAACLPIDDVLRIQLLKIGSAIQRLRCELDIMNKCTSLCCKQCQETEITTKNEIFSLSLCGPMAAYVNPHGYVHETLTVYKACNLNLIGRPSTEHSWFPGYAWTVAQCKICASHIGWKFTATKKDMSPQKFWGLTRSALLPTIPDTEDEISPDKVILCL

[13] = Toxicity in BALB/c mouse implanted with mouse 4T1 cells assessed as effect on red blood cells at 50 mg/kg, ip measured after 25 days in presence of cisplatin by routine blood test; format: organism-based; settings: in vivo, 600 h, time 25 day
[14] = Toxicity in BALB/c mouse implanted with mouse 4T1 cells assessed as pathological changes in liver at 50 mg/kg, ip measured after 25 days by Hematoxylin -eosin staining based analysis; format: organism-based; settings: in vivo, 600 h, time 25 day
[15] = biological target: T5, Protein cereblon/Hexokinase-2 (Homo sapiens); assay: PROTAC activity at CRBN/HK2 in human MDA-MB-231 cells assessed as HK2 degradation at 20 uM incubated for 36 hrs; format: cell-based
4T1 [16] = assay: Induction of pyroptosis in mouse 4T1 cells assessed as reduction in full length caspase-3 level at 20 uM incubated for 36 hrs; format: functional, cell-based
4T1 [17] = assay: Induction of mitochondrial damage in mouse 4T1 cells assessed as reduction in ATP level at 20 uM measured for 36 hrs; format: functional, cell-based
4T1 [18] = assay: Antitumor immunity against mouse 4T1 cells implanted in BALB/c mouse model assessed as increase in CRT accumulation in tumor; format: functional, cell-based

O=C1CCC(N2C(=O)c3cccc(NCCCCNC(=O)c4nn(Cc5ccc(Cl)cc5Cl)c5ccccc45)c3C2=O)C(=O)N1 (stereo not drawn)
Activity [1]: Non-Toxic | Activity (4T1 [2]): Active | Activity [3]: Dose-Dependent Effect | DC50 (Hexokinase-2 [4]): 0.79 µM | Activity (4T1 [5]): Active | Activity (4T1 [6]): Active | Activity [7]: Non-Toxic | Activity [8]: Dose-Dependent Effect | DC50 (Hexokinase-2 [9]): 2.56 µM | Activity [10]: Active | Activity [11]: Non-Toxic | Activity [12]: Active | Activity [13]: Non-Toxic | Activity [14]: Non-Toxic | Activity [15]: Active | Activity (4T1 [16]): Active | Activity (4T1 [17]): Active | Activity (4T1 [18]): Active
